Where no end group is shown, it is not given here.
Tested on: EpCAM
Test: Spot phage ELISA, EpCAM
Format: binding, human
Conditions: spot phage ELISA signal-to-noise on EpCAM

Substance	S/N
GPTQSHYGQCGGFGYMGVMVCSGTTCQWIIRPFSQCLPGAS (disulfide (positions not given here)) [EpCAM CBD 25]	16.9
GPTQSHYGQCGGFGYQGAVVCSGTTCQFTHLGHSQCLPGAS (disulfide (positions not given here)) [EpCAM CBD 88]	5.9
GPTQSHYGQCGGFGYTGAIGCSGTTCQHVKYMRSQCLPGAS (disulfide (positions not given here)) [EpCAM CBD 7]	22.6
GPTQSHYGQCGGGGYHGIICSGTTCQSREVVRSQCLPGAS (disulfide (positions not given here)) [EpCAM CBD 84]	6.7
GPTQSHYGQCGGGGYIGAMPCSGTTCQPVRIP*SQCLPGAS (disulfide) [EpCAM CBD 26]	16.6
GPTQSHYGQCGGGGYPGAIMCSGTTCQFVMAHKSQCLPGAS (disulfide (positions not given here)) [EpCAM CBD 77]	7.5
GPTQSHYGQCGGGGYRGVVCSGTTCQPFFVFGSQCLPGAS (disulfide (positions not given here)) [EpCAM CBD 22]	17.1
GPTQSHYGQCGGGGYYGAISCSGTTCQPVRLIRSQCLPGAS (disulfide (positions not given here)) [EpCAM CBD 37]	13.0
GPTQSHYGQCGGHGYHGWAICSGTTCQERIRHLSQCLPGAS (disulfide (positions not given here)) [EpCAM CBD 41]	11.6
GPTQSHYGQCGGHGYMGSIKCSGTTCQYVEIVPSQCLPGAS (disulfide (positions not given here)) [EpCAM CBD 66]	8.6
GPTQSHYGQCGGHGYQGIMRCSGTTCQQVYMRSSQCLPGAS (disulfide (positions not given here)) [EpCAM CBD 34]	15.0
GPTQSHYGQCGGHGYVGMIACSGTTCQYLQKVPSQCLPGAS (disulfide (positions not given here)) [EpCAM CBD 13]	19.5
GPTQSHYGQCGGIGYMGAIQCSGTTCQPIFLRNSQCLPGAS (disulfide (positions not given here)) [EpCAM CBD 6]	22.6
GPTQSHYGQCGGKGYFGAIVCSGTTCQSTQKYASQCLPGAS (disulfide (positions not given here)) [EpCAM CBD 62]	8.8
GPTQSHYGQCGGKGYFGIRCSGTTCQMVTYKPSQCLPGAS (disulfide (positions not given here)) [EpCAM CBD 33]	15.1
GPTQSHYGQCGGKGYHGFIRCSGTTCQVVYPEKSQCLPGAS (disulfide (positions not given here)) [EpCAM CBD 58]	9.2
GPTQSHYGQCGGKGYNGYFVCSGTTCQWKAKTDSQCLPGAS (disulfide (positions not given here)) [EpCAM CBD 15]	19.3
GPTQSHYGQCGGKGYPGAIVCSGTTCQLVQSWRSQCLPGAS (disulfide (positions not given here)) [EpCAM CBD 63]	8.7
GPTQSHYGQCGGKGYPGYIVCSGTTCQMVNQSHSQCLPGAS (disulfide (positions not given here)) [EpCAM CBD 55]	9.4
GPTQSHYGQCGGKGYQGAMKCSGTTCQYIFFPTSQCLPGAS (disulfide (positions not given here)) [EpCAM CBD 64]	8.6
GPTQSHYGQCGGKGYRGAIRCSGTTCQYIREFTSQCLPGAS (disulfide (positions not given here)) [EpCAM CBD 43]	11.4

Substance	S/N
GPTQSHYGQCGGLGYAGAIVCSGTTCQYTIRNPSQCLPGAS (disulfide (positions not given here)) [EpCAM CBD 65]	8.6
GPTQSHYGQCGGLGYHGAIMCSGTTCQYAPIVTSQCLPGAS (disulfide (positions not given here)) [EpCAM CBD 52]	9.8
GPTQSHYGQCGGLGYLGMMQCSGTTCQYIQREISQCLPGAS (disulfide (positions not given here)) [EpCAM CBD 29]	15.7
GPTQSHYGQCGGLGYQGGMMCSGTTCQYVPIWRSQCLPGAS (disulfide (positions not given here)) [EpCAM CBD 17]	18.6
GPTQSHYGQCGGLGYTGAIVCSGTTCQWKQLMRSQCLPGAS (disulfide (positions not given here)) [EpCAM CBD 24]	16.9
GPTQSHYGQCGGLGYVGAMQCSGTTCQYVVRNFSQCLPGAS (disulfide (positions not given here)) [EpCAM CBD 28]	16.2
GPTQSHYGQCGGMGYHGAISCSGTTCQPIIFPVSQCLPGAS (disulfide (positions not given here)) [EpCAM CBD 19]	17.9
GPTQSHYGQCGGMGYHGFIVCSGTTCQHMMPTTSQCLPGAS (disulfide (positions not given here)) [EpCAM CBD 12]	19.8
GPTQSHYGQCGGMGYKGIMCSGTTCQHAYIFRSQCLPGAS (disulfide (positions not given here)) [EpCAM CBD 49]	10.2
GPTQSHYGQCGGMGYQGMIKCSGTTCQYVARQASQCLPGAS (disulfide (positions not given here)) [EpCAM CBD 47]	10.5
GPTQSHYGQCGGNGYMGVISCSGTTCQEIQMQRSQCLPGAS (disulfide (positions not given here)) [EpCAM CBD 90]	4.8
GPTQSHYGQCGGPGYFGXVVCSGTTCQFAHIHRSQCLPGAS (disulfide) [EpCAM CBD 85]	6.6
GPTQSHYGQCGGPGYLGVIVCSGTTCQYQLRPTSQCLPGAS (disulfide (positions not given here)) [EpCAM CBD 70]	8.4
GPTQSHYGQCGGPGYPGYIRCSGTTCQWIHSRTSQCLPGAS (disulfide (positions not given here)) [EpCAM CBD 89]	5.8
GPTQSHYGQCGGPGYQGFIVCSGTTCQYRQPSESQCLPGAS (disulfide (positions not given here)) [EpCAM CBD 2]	24.7
GPTQSHYGQCGGPGYTGVIKCSGTTCQFVNLPRSQCLPGAS (disulfide (positions not given here)) [EpCAM CBD 51]	9.8
GPTQSHYGQCGGPGYVGSIMCSGTTCQFQYIPTSQCLPGAS (disulfide (positions not given here)) [EpCAM CBD 23]	16.9
GPTQSHYGQCGGPGYYGAIVCSGTTCQHTFITHSQCLPGAS (disulfide (positions not given here)) [EpCAM CBD 57]	9.3
GPTQSHYGQCGGQGYHGAILCSGTTCQYTMISRSQCLPGAS (disulfide (positions not given here)) [EpCAM CBD 5]	22.8
GPTQSHYGQCGGQGYHGMIRCSGTTCQWVPMVRSQCLPGAS (disulfide (positions not given here)) [EpCAM CBD 39]	12.6
GPTQSHYGQCGGQGYHGYIMCSGTTCQYYTPYTSQCLPGAS (disulfide (positions not given here)) [EpCAM CBD 68]	8.5

Substance	S/N
GPTQSHYGQCGGQGYIGAIMCSGTTCQMRSLPASQCLPGAS (disulfide (positions not given here)) [EpCAM CBD 20]	17.5
GPTQSHYGQCGGQGYYGAIMCSGTTCQWEPARKSQCLPGAS (disulfide (positions not given here)) [EpCAM CBD 31]	15.3
GPTQSHYGQCGGRGYFGAIICSGTTCQYVQKHMSQCLPGAS (disulfide (positions not given here)) [EpCAM CBD 9]	20.9
GPTQSHYGQCGGRGYFGALRCSGTTCQYVTMIESQCLPGAS (disulfide (positions not given here)) [EpCAM CBD 80]	7.3
GPTQSHYGQCGGRGYKGAIVCSGTTCQVAQMYQSQCLPGAS (disulfide (positions not given here)) [EpCAM CBD 86]	6.6
GPTQSHYGQCGGRGYPGAMVCSGTTCQWHQPLRSQCLPGAS (disulfide (positions not given here)) [EpCAM CBD 60]	8.9
GPTQSHYGQCGGRGYPGAVICSGTTCQYHQATRSQCLPGAS (disulfide (positions not given here)) [EpCAM CBD 73]	7.8
GPTQSHYGQCGGRGYPGAVVCSGTTCQYAVVPHSQCLPGAS (disulfide (positions not given here)) [EpCAM CBD 14]	19.4
GPTQSHYGQCGGRGYPGFIRCSGTTCQFVQSVQSQCLPGAS (disulfide (positions not given here)) [EpCAM CBD 78]	7.4
GPTQSHYGQCGGRGYPGRMVCSGTTCQYVAPMISQCLPGAS (disulfide (positions not given here)) [EpCAM CBD 27]	16.6
GPTQSHYGQCGGRGYVGAIACSGTTCQFTPPRSSQCLPGAS (disulfide (positions not given here)) [EpCAM CBD 87]	6.1
GPTQSHYGQCGGRGYVGALMCSGTTCQYIAKPVSQCLPGAS (disulfide (positions not given here)) [EpCAM CBD 4]	23.5
GPTQSHYGQCGGRGYVGGIKCSGTTCQOVHAHPSQCLPGAS (disulfide) [EpCAM CBD 72]	8.0
GPTQSHYGQCGGRGYWGMAICSGTTCQAQTRMISQCLPGAS (disulfide (positions not given here)) [EpCAM CBD 42]	11.4
GPTQSHYGQCGGSGYHGAILCSGTTCQYVEVSRSQCLPGAS (disulfide (positions not given here)) [EpCAM CBD 10]	20.7
GPTQSHYGQCGGSGYKGAIKCSGTTCQLVTVHVSQCLPGAS (disulfide (positions not given here)) [EpCAM CBD 46]	10.7
GPTQSHYGQCGGSGYKGVIVCSGTTCQYKIMTMSQCLPGAS (disulfide (positions not given here)) [EpCAM CBD 44]	11.1
GPTQSHYGQCGGSGYPGAVVCSGTTCQWRQVPRSQCLPGAS (disulfide (positions not given here)) [EpCAM CBD 18]	18.3
GPTQSHYGQCGGSGYPGHFLCSGTTCQTPRSWSSQCLPGAS (disulfide (positions not given here)) [EpCAM CBD 82]	6.9
